Measurements from patent publication US10160771B2, “Hepatitis C virus inhibitors and uses thereof in preparation of drugs” (priority 2014, dated 2018).

Tests used:
[1] = system: HCV genotype 1a (HCV-1a) replicon cells; assay: HCV genotype 1a replicon luciferase assay (EC50); assay type: cell-based, hepatitis C virus genotype 1a (H77 clone); settings: Hepatitis C virus, 72 h, 3 days, luciferase (Bright-Glo)
Outline: (§1)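 EC50 values come from nonlinear fitting of inhibition derived from replicon luciferase signal. Cells (8000/well) were treated 3 days with duplicate 6-point, 5-fold dilutions, starting at 100, 10 or 1 nM, with 0.5% DMSO.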

[2] = Cell Titer-fluor cell activity assay in HCV-1b replicon cells (CC50); assay type: cell-based
Outline: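 CC50 derived by nonlinear fitting of inhibition % from Cell Titer-fluor signal (405/515 nm, 30 min). Cells: genotype 1b Con1 replicon carrying E1202G, T1280I, K1846T, seeded 8000/well with compound for 3 days, 37 °C, 0.5% DMSO; 6 points, 5-fold dilution, top 100, 10 or 1 nM, duplicates.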

[3] = system: HCV genotype 1b (HCV-1b) replicon cells; assay: HCV genotype 1b replicon luciferase assay (EC50); assay type: cell-based, hepatitis C virus genotype 1b (Con1 clone); settings: Hepatitis C virus, 72 h, 3 days, luciferase (Bright-Glo)
Outline: as §1

Row | SMILES | EC50 [1] | CC50 at 3 days [2] | EC50 [3]
1 | COC(=O)N[C@H](C(=O)N1CCC[C@H]1c1ncc(-c2ccc(-c3ccc(-c4[nH]c([C@H]5CCCN5C(=O)[C@@H](NC(=O)OC)[C@@H](C)OC)c5c4CCCC5)cc3)cc2)[nH]1)C(C)C [AG_078_B] | 10 to 100 nM | > 5 nM | 0.101 to 1 nM
2 | COC(=O)N[C@H](C(=O)N1CCC[C@H]1c1ncc(-c2ccc(-c3ccc(-c4cnc([C@H]5C6CCC(C6)[C@@H]5C(=O)NCc5ccc(N)cc5)[nH]4)cc3)cc2)[nH]1)[C@@H](C)OC (stereo partly drawn) [AA_227] | 10 to 100 nM | > 1 nM | 0.101 to 1 nM
3 | COC(=O)N[C@H](C(=O)N1CCC[C@H]1c1ncc(-c2ccc(-c3ccc(-c4cnc([C@H]5C6CCC(C6)[C@@H]5C(=O)NCCc5ccccn5)[nH]4)cc3)cc2)[nH]1)C(C)C (stereo partly drawn) [AA_202] | 1 to 10 nM | > 1 nM | 0.001 to 0.1 nM
4 | COC(=O)N[C@H](C(=O)N1CCC[C@H]1c1ncc(-c2ccc(-c3ccc(-c4cnc(C5C6CCC(C6)[C@H]5C(=O)NCc5ccc(C(F)(F)F)nc5)[nH]4)cc3)cc2)[nH]1)[C@@H](C)OC (stereo partly drawn) [AA_264_B] | 10 to 100 nM | > 1 nM | 0.101 to 1 nM
5 | COC(=O)N[C@H](C(=O)N1CCC[C@H]1c1ncc(-c2ccc(-c3ccc(-c4cnc([C@@H]5C6CCC(C6)[C@H]5C(=O)NCc5ccc(F)nc5)[nH]4)cc3)cc2)[nH]1)C(C)C (stereo partly drawn) [AA_214_B] | 10 to 100 nM | > 1 nM | 0.001 to 0.1 nM
6 | COC(=O)N[C@H](C(=O)N1CC2(CC2)C[C@H]1c1ncc(-c2ccc(-c3ccc(-c4[nH]c([C@@H]5CCCN5C(=O)[C@@H](NC(=O)OC)[C@@H](C)OC)c5c4COC5)cc3)cc2)[nH]1)[C@@H](C)OC [AG_116] | 0.001 to 0.1 nM | > 1 nM | 0.001 to 0.1 nM
7 | COC(=O)N[C@H](C(=O)N1CCCC1c1ncc(-c2ccc(-c3ccc(-c4cnc([C@H]5C6CCC(C6)C5C(=O)NCc5cccnc5)[nH]4)cc3)c(F)c2)[nH]1)[C@@H](C)OC (stereo partly drawn) [AA_280_B] | 0.101 to 1 nM | > 1 nM | 0.001 to 0.1 nM
8 | COC(=O)N[C@H](C(=O)N1CCC[C@H]1c1ncc(-c2ccc(-c3ccc(-c4cnc([C@@H]5[C@H]6CC[C@H](C6)[C@H]5C(=O)NCc5nccs5)[nH]4)cc3)cc2)[nH]1)C(C)C [AA_208_ENDOA2] | 0.101 to 1 nM | > 1 nM | 0.001 to 0.1 nM
9 | COC(=O)N[C@@H](CO)C(=O)N1CCC[C@H]1c1ncc(-c2ccc(-c3ccc(-c4ccc([C@@H]5CCCN5C(=O)[C@@H](NC(=O)OC)C(C)OC)[nH]4)cc3)cc2)[nH]1 (stereo partly drawn) [AG_119] | 0.101 to 1 nM | > 1 nM | 0.001 to 0.1 nM
10 | COC(=O)N[C@H](C(=O)N1CCC[C@H]1c1ncc(-c2ccc(-c3ccc(-c4cnc([C@@H]5[C@H]6CC[C@H](C6)[C@H]5C(=O)N[C@@H](C)c5cnccn5)[nH]4)cc3)cc2)[nH]1)C(C)C [AA_270_ENDOA2_A] | 0.001 to 0.1 nM | > 1 nM | 0.001 to 0.1 nM
11 | COC(=O)N[C@H](C(=O)N1CCC[C@H]1c1ncc(-c2ccc(-c3ccc(-c4cnc(C5C6CCC(C6)[C@H]5C(=O)NCCc5ccncc5)[nH]4)cc3)cc2)[nH]1)[C@@H](C)OC (stereo partly drawn) [AA_266_B] | 10 to 100 nM | > 1 nM | 0.101 to 1 nM
12 | COC(=O)N[C@H](C(=O)N1CCC[C@H]1c1ncc(-c2ccc(-c3ccc(-c4cnc(C5C6CCC(C6)[C@H]5C(=O)NCc5cccnc5)[nH]4)cc3)cc2)[nH]1)[C@@H](C)OC (stereo partly drawn) [AA_179_A] | 1 to 10 nM | > 1 nM | 0.001 to 0.1 nM
13 | COC(=O)N[C@H](C(=O)N1CCC[C@H]1c1ncc(-c2ccc(-c3ccc(-c4cnc([C@@H]5C6CCC(C6)[C@H]5C(=O)NCc5cccs5)[nH]4)cc3)cc2)[nH]1)C(C)C (stereo partly drawn) [AA_196_B] | 10 to 100 nM | > 1 nM | 0.001 to 0.1 nM
14 | COC(=O)N[C@H](C(=O)N1CCC[C@H]1c1ncc(-c2ccc(-c3ccc(-c4cnc([C@H]5C6CCC(C6)[C@@H]5C(=O)NCc5ccccc5)[nH]4)cc3)cc2)[nH]1)C(C)C (stereo partly drawn) [AA_207_A] | 1 to 10 nM | > 1 nM | 0.001 to 0.1 nM
15 | COC(=O)N[C@H](C(=O)N1CCC[C@H]1c1ncc(-c2ccc(-c3ccc(-c4cnc(C5C6CCC(C6)[C@@H]5C(=O)NCc5cccnc5C5CC5)[nH]4)cc3)cc2)[nH]1)[C@@H](C)OC (stereo partly drawn) [AA_256_A] | 10 to 100 nM | > 1 nM | 0.001 to 0.1 nM
16 | COC(=O)N[C@H](C(=O)N1CCC[C@H]1c1ncc(-c2ccc(-c3ccc(-c4ccc([C@@H]5CCCN5C(=O)N(NC(=O)OC)C(C)C)[nH]4)cc3)cc2)[nH]1)C(C)C [AG_081_A] | 10 to 100 nM | > 5 nM | 0.101 to 1 nM
